Source: PMC9150124, “Design of a Potent, Selective, and Brain-Penetrant Inhibitor of Wnt-Deactivating Enzyme Notum by Optimization of a Crystallographic Fragment Hit” (Journal of Medicinal Chemistry, 2022)

What was measured:
Test in all cases: SelectScreen kinase profiling, SSBK LanthaScreen Binding SP Technology
[1] = molecular target: kinase named in conditions (Homo sapiens, UniProt Q86Y07); conditions: VRK2, 10 μM
Method: (§1) Kinase selectivity screening was performed by Thermo Fisher Scientific (Paisley, U.K.) in their SelectScreen Biochemical Kinase Profiling Service. Assay information and data are presented in the Supporting Information.
(§2) Kinase selectivity screening was performed by ThermoFisher Scientific (Paisley, U.K.) in their SelectScreenTM
(§3) Biochemical Kinase Profiling service .
(§4) Illustration reproduced courtesy of Cell Signaling technology, Inc.
(§5) (B) Illustration of phylogenetic tree of kinases screened.

[2] = molecular target: kinase named in conditions (Homo sapiens, UniProt P36897); conditions: TGFBR1 (ALK5), 10 μM
Method: as §1, §2, §3, §4, §5

[3] = molecular target: kinase named in conditions (Homo sapiens, UniProt Q9BWU1); conditions: 10 μM
kinase named in conditions (Homo sapiens, UniProt Q9BWU1), sequence (Q9BWU1 whole entry): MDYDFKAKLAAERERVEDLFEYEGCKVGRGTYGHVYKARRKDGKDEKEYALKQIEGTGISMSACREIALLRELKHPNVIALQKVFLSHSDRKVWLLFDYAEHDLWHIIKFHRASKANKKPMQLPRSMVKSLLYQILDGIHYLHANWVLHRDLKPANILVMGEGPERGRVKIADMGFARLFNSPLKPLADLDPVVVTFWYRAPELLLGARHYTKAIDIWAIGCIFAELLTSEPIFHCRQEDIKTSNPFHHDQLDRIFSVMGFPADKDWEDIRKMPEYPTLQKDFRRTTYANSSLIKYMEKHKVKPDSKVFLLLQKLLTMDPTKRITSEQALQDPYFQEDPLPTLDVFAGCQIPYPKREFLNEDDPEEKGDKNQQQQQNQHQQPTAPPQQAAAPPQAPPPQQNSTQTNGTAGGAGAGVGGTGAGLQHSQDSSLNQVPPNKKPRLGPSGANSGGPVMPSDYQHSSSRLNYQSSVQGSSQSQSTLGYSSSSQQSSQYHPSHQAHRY
Method: as §1, §2, §3, §4, §5

[4] = molecular target: kinase named in conditions (Homo sapiens, UniProt P07949, V804M); conditions: RET V804M, 10 μM
Method: as §1, §2, §3, §4, §5

[5] = molecular target: kinase named in conditions (Homo sapiens, UniProt Q07912); conditions: TNK2 (ACK), 10 μM
kinase named in conditions (Homo sapiens, UniProt Q07912), sequence (Q07912 whole entry): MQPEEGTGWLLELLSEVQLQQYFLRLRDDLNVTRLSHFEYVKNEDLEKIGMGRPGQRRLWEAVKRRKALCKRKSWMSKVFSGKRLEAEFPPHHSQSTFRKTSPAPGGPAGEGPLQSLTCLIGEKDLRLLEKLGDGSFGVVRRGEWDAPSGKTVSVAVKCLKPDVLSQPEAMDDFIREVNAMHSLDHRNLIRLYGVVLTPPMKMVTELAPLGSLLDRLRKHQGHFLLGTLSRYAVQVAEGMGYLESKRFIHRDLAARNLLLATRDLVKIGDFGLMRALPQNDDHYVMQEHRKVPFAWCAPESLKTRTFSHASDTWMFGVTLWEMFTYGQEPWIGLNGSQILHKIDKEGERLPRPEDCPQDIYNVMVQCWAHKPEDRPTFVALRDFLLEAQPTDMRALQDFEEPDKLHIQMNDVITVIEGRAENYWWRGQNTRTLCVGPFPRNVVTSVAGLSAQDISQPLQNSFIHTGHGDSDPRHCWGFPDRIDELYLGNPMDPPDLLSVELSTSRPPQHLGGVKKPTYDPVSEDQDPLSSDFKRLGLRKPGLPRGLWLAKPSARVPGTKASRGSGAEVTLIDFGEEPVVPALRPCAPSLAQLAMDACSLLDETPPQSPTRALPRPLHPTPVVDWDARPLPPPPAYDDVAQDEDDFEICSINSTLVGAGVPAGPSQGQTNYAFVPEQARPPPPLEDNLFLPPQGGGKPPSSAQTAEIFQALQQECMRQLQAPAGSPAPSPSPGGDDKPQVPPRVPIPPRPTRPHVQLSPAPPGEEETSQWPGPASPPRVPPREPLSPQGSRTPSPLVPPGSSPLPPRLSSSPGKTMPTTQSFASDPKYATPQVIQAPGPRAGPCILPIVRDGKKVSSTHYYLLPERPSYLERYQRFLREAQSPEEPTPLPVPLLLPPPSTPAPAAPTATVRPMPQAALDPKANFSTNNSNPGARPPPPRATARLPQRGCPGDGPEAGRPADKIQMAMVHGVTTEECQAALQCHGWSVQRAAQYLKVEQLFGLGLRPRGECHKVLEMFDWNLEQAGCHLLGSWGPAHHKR
Method: as §1, §2, §3, §4, §5

[6] = molecular target: kinase named in conditions (Homo sapiens, UniProt Q92918); conditions: MAP4K1 (HPK1), 10 μM
Method: as §1, §2, §3, §4, §5

[7] = molecular target: kinase named in conditions (Homo sapiens, UniProt P45983); conditions: MAPK8 (JNK1), 10 μM
kinase named in conditions (Homo sapiens, UniProt P45983), sequence (P45983 whole entry): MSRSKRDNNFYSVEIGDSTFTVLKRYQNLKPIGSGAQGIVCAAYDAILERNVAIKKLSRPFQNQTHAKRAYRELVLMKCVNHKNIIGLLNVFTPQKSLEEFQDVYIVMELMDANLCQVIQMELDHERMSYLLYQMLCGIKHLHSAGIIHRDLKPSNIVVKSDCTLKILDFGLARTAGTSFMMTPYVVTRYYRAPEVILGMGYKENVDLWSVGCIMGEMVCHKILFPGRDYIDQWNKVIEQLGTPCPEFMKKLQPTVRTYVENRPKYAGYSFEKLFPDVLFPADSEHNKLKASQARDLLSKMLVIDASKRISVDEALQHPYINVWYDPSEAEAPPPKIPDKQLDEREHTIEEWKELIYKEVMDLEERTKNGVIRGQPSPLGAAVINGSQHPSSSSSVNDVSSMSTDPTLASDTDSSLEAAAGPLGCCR
Method: as §1, §2, §3, §4, §5

[8] = molecular target: kinase named in conditions (Homo sapiens, UniProt P37023); conditions: ACVRL1 (ALK1), 10 μM
Method: as §1, §2, §3, §4, §5

[9] = molecular target: kinase named in conditions (Homo sapiens, UniProt Q9HBH9); conditions: MKNK2 (MNK2), 10 μM
Method: as §1, §2, §3, §4, §5

[10] = molecular target: kinase named in conditions (Homo sapiens, UniProt P24941)
Method: as §1, §2, §3, §4, §5

[11] = molecular target: kinase named in conditions (Homo sapiens, UniProt Q02763, R849W); conditions: TEK (TIE2) R849W, 10 μM
Method: as §1, §2, §3, §4, §5

[12] = molecular target: kinase named in conditions (Homo sapiens, UniProt P45985); conditions: MAP2K4 (MEK4), 10 μM
Method: as §1, §2, §3, §4, §5

[13] = molecular target: kinase named in conditions (Homo sapiens, UniProt P22694); conditions: PRKACB (PRKAC beta), 10 μM
Method: as §1, §2, §3, §4, §5

[14] = molecular target: kinase named in conditions (Homo sapiens, UniProt P33981); conditions: TTK, 10 μM
Method: as §1, §2, §3, §4, §5

[15] = test system: kinase named in conditions
Method: as §1, §2, §3, §4, §5

[16] = molecular target: kinase named in conditions (Homo sapiens, UniProt Q04771, R206H); conditions: ACVR1 (ALK2) R206H, 10 μM
Method: as §1, §2, §3, §4, §5

[17] = molecular target: kinase named in conditions (Homo sapiens, UniProt P29320); conditions: EPHA3, 10 μM
kinase named in conditions (Homo sapiens, UniProt P29320), sequence (P29320 21-983): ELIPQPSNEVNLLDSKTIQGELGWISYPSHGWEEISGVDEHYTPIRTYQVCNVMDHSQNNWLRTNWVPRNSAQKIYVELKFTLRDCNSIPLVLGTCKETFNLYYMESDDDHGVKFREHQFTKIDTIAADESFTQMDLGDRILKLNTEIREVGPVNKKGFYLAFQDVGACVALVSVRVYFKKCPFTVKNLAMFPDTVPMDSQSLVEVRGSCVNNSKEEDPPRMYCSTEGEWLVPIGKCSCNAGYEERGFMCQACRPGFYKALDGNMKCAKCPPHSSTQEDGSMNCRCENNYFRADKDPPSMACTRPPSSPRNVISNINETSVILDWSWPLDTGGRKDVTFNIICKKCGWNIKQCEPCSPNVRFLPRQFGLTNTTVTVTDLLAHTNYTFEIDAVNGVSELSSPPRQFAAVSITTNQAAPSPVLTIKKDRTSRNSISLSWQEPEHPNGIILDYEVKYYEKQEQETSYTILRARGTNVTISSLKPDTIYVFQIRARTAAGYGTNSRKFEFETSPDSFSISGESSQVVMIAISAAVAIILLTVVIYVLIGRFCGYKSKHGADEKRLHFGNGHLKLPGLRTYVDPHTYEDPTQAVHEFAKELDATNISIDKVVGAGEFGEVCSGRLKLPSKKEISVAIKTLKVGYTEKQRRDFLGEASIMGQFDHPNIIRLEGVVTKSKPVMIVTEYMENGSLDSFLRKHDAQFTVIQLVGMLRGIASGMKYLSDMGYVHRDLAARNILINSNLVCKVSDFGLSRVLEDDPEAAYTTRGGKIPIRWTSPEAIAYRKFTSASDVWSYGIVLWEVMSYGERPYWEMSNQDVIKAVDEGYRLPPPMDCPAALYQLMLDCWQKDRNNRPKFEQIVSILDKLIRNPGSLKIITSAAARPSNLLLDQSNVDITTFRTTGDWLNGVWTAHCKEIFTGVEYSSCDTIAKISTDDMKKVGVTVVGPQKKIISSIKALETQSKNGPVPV
Method: as §1, §2, §3, §4, §5

[18] = molecular target: kinase named in conditions (Homo sapiens, UniProt Q99558); conditions: MAP3K14 (NIK), 10 μM
kinase named in conditions (Homo sapiens, UniProt Q99558), sequence (Q99558 whole entry): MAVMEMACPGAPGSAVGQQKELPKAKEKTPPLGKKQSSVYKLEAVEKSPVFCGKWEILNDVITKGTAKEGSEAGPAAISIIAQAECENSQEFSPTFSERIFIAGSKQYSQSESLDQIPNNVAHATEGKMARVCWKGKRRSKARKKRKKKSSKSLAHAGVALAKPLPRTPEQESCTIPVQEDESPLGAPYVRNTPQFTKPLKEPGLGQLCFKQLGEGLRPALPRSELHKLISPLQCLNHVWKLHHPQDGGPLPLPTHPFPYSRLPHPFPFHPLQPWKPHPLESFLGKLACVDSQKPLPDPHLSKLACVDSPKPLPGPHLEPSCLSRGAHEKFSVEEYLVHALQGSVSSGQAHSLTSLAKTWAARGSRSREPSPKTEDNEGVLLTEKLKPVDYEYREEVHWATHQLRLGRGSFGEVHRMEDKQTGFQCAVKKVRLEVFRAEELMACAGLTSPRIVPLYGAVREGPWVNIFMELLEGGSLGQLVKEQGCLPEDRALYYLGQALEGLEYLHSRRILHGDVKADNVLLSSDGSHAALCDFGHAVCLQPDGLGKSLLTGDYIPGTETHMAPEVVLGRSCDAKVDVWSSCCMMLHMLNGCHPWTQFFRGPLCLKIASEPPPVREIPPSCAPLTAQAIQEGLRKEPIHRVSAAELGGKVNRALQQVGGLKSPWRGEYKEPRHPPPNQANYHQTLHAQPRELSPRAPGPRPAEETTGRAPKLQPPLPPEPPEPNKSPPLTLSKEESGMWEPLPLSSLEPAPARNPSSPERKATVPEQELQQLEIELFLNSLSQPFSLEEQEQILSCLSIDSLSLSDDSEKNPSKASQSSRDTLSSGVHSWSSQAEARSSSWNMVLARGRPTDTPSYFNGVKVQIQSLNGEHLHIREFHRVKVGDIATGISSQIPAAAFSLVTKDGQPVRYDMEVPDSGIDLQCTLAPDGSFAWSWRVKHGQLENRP
Method: as §1, §2, §3, §4, §5

[19] = molecular target: kinase named in conditions (Homo sapiens, UniProt P37173); conditions: TGFBR2, 10 μM
Method: as §1, §2, §3, §4, §5

[20] = molecular target: kinase named in conditions (Homo sapiens, UniProt Q9H093); conditions: NUAK2, 10 μM
Method: as §1, §2, §3, §4, §5

[21] = molecular target: kinase named in conditions (Homo sapiens, UniProt Q32MK0); conditions: MLCK (MLCK2), 10 μM
Method: as §1, §2, §3, §4, §5

[22] = molecular target: kinase named in conditions (Homo sapiens, UniProt P11362, V561M); conditions: FGFR1 V561M, 10 μM
Method: as §1, §2, §3, §4, §5

[23] = molecular target: kinase named in conditions (Homo sapiens, UniProt P22607, K650M); conditions: FGFR3 K650M, 10 μM
Method: as §1, §2, §3, §4, §5

[24] = molecular target: kinase named in conditions (Homo sapiens, UniProt P08581, D1228H); conditions: MET D1228H, 10 μM
Method: as §1, §2, §3, §4, §5

[25] = molecular target: kinase named in conditions (Homo sapiens, UniProt Q9NYL2); conditions: ZAK, 10 μM
Method: as §1, §2, §3, §4, §5

[26] = molecular target: kinase named in conditions (Homo sapiens, UniProt P52564, S207E/T211E); conditions: MAP2K6 (MKK6) S207E T211E, 10 μM
Method: as §1, §2, §3, §4, §5

[27] = molecular target: kinase named in conditions (Homo sapiens, UniProt Q9UPZ9); conditions: ICK, 10 μM
Method: as §1, §2, §3, §4, §5

[28] = molecular target: kinase named in conditions (Homo sapiens, UniProt Q9BYT3); conditions: STK33, 10 μM
kinase named in conditions (Homo sapiens, UniProt Q9BYT3), sequence (Q9BYT3 whole entry): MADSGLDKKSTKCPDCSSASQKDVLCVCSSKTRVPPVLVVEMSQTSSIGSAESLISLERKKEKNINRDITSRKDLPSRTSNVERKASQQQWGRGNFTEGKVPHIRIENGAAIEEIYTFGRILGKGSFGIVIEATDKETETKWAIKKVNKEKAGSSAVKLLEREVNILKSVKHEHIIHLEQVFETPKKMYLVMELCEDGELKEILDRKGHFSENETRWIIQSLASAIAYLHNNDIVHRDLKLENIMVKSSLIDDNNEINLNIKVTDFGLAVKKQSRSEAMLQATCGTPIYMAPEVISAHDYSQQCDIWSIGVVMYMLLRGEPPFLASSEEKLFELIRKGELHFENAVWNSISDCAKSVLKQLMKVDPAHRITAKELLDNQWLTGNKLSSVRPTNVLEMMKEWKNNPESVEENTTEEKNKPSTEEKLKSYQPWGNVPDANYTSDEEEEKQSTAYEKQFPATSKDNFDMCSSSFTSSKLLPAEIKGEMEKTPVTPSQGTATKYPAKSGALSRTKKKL
Method: as §1, §2, §3, §4, §5

[29] = molecular target: kinase named in conditions (Homo sapiens, UniProt P36507); conditions: MAP2K2 (MEK2), 10 μM
Method: as §1, §2, §3, §4, §5

[30] = molecular target: kinase named in conditions (Homo sapiens, UniProt Q9HAZ1); conditions: CLK4, 10 μM
kinase named in conditions (Homo sapiens, UniProt Q9HAZ1), sequence (Q9HAZ1 whole entry): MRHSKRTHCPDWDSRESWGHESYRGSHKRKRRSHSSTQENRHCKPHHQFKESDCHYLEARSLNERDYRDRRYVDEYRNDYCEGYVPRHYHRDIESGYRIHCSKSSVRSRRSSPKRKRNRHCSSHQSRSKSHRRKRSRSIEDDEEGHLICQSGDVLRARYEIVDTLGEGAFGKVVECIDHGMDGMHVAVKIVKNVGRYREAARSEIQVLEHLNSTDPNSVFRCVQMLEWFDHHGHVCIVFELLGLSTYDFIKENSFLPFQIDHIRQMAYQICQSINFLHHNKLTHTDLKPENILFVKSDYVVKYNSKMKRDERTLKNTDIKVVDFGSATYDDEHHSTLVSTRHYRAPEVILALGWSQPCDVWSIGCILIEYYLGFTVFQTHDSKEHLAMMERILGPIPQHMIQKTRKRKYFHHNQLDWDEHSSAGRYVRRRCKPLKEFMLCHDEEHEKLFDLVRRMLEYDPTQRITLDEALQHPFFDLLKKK
Method: as §1, §2, §3, §4, §5

[31] = molecular target: kinase named in conditions (Homo sapiens, UniProt Q8NI60); conditions: ADCK3, 10 μM
Method: as §1, §2, §3, §4, §5

[32] = molecular target: kinase named in conditions (Homo sapiens, UniProt Q9UIK4); conditions: DAPK2, 10 μM
Method: as §1, §2, §3, §4, §5

[33] = molecular target: kinase named in conditions (Homo sapiens, UniProt P00519, M351T); conditions: ABL1 M351T, 10 μM
Method: as §1, §2, §3, §4, §5

## FC(F)(F)c1c(Cl)ccc(-n2ccnn2)c1Cl [8l, 1-(2,4-Dichloro-3-(trifluoromethyl)phenyl)-1H-1,2,3-triazole]
[1]
  inhibition at 10 µM: -11%
[2]
  inhibition at 10 µM: -1%
[3]; CDK11 (Inactive)
  inhibition at 10 µM: 12%
[3]; CDK11/cyclin C
  inhibition at 10 µM: 23%
[4]
  inhibition at 10 µM: 8%
[5]
  inhibition at 10 µM: 3%
[6]
  inhibition at 10 µM: 15%
[7]
  inhibition at 10 µM: -9%
[8]
  inhibition at 10 µM: 12%
[9]
  inhibition at 10 µM: 3%
[10]; CDK2/cyclin A1, 10 μM
  inhibition at 10 µM: 3%
[10]; CDK2/cyclin E1, 10 μM
  inhibition at 10 µM: -4%
[10]; CDK2/cyclin O, 10 μM
  inhibition at 10 µM: 7%
[11]
  inhibition at 10 µM: 19%
[12]
  inhibition at 10 µM: -2%
[13]
  inhibition at 10 µM: 1%
[14]
  inhibition at 10 µM: 5%
[15]; ALK T1151_L1152insT, 10 μM
  % Inhibition mean: 3%
[15]; EGFR (ErbB1) d746-750, 10 μM
  % Inhibition mean: 2%
[15]; EGFR (ErbB1) d747-749 A750P, 10 μM
  % Inhibition mean: -6%
[15]; FLT3 ITD, 10 μM
  % Inhibition mean: -15%
[16]
  inhibition at 10 µM: 0%
[17]
  inhibition at 10 µM: 7%
[18]
  inhibition at 10 µM: 16%
[19]
  inhibition at 10 µM: 7%
[20]
  inhibition at 10 µM: 7%
[21]
  inhibition at 10 µM: -3%
[22]
  inhibition at 10 µM: 4%
[23]
  inhibition at 10 µM: 2%
[24]
  inhibition at 10 µM: -13%
[25]
  inhibition at 10 µM: 3%
[26]
  inhibition at 10 µM: 11%
[27]
  inhibition at 10 µM: -6%
[28]
  inhibition at 10 µM: 6%
[29]
  inhibition at 10 µM: 5%
[30]
  inhibition at 10 µM: 3%
[31]
  inhibition at 10 µM: 12%
[32]
  inhibition at 10 µM: 23%
[33]
  inhibition at 10 µM: 24%
